For series [1] the following is noted: cited from earlier work.
Series [2] in a line: removal of arsenate from water by ligand-based MIP. To be noted: ligand used in suspension polymerization MIP. An excerpt: (§1) General classes of cationic ligands that can be used in the present method include, but are not limited to, cationic oxygen containing heterocyclics, cationic nitrogen containing heterocyclics, cationic sulfur containing heterocyclics, cationic phosphorous containing heterocyclics, ammonium salts, phosphonium salts, acylinium salts, metallocenium salts, amidinium salts, imminium salts, and trityl salts. In one embodiment, the ligand can be 4-vinylbenzyl-N,N-dimethyl-N-decylammonium, 4-vinylbenzyl-N-decyl-N-methylglucammonium, N-methyl vinylpyridinium, or 4-vinylbenzyl-N,N-dimethyl-D-glucammonium.

Series [3] can be described thus: removal of gold-containing cations from water by ligand-based MIP. As to conditions: ligand used in cationic molecularly imprinted polymer.
Description: as §1

We go through five molecules from patent US7476316B2, “Molecularly imprinted polymers (MIPS) for the selective removal of inorganic contaminants from liquids” (priority 2005, dated 2009).

The structures appear in SMILES notation.

For `OCCCCCO` [1,5-pentanediol], in series [1], the miscibility with water entry is given as “completely miscible”.

`C=Cc1ccc(C[N+](C)(C)CCCCCCCCCC)cc1.[Cl-]` [Example 1, N-(4-vinylbenzyl)-N-decyl-N,N-dimethylammonium chloride]: in series [2], the “removal of arsenate from water” value is “good results”. The “removal of gold-containing cations from water” value in series [3] is “particularly good results”.

As for `CCCCCO` [Example 1-pentanol, 1-pentanol], the soluble in water in series [1] (in water) is recorded as 2.3 % weight/weight.

With `C=Cc1ccc(C[N+](C)(CCCCCCCCCC)C[C@H](O)[C@@H](O)[C@H](O)[C@H](O)CO)cc1.[I-]` (stereo partly drawn) [Example 3, N-(4-Vinylbenzyl)-N-decyl-N-methylglucammonium iodide], the “removal of arsenate from water” value in series [2] is given as “good results”.

In the case of `CCCCC` [n-pentane], the miscibility with water entry in series [1] is “completely immiscible”.
